From ChEMBL document CHEMBL1137652, “Prevalence and expression of the plasmid-mediated quinolone resistance determinant qnrA1” (2007)
In brackets after ≈: the same amount, converted by molar mass.

Key:
[1] = system: Escherichia coli; test: Antimicrobial activity against azide-resistant Escherichia coli J53 by agar dilution method; type: functional
[2] = system: Escherichia coli; test: Antimicrobial activity against azide-resistant aac(6')-Ib-cr expressing Escherichia coli J53 qnrA1 bearing pHS3 transconjugant from Citrobacter freundii 64 by agar dilution method; type: functional
[3] = system: Escherichia coli; test: Antimicrobial activity against azide-resistant aac(6')-Ib-cr deficient Escherichia coli J53 qnrA1 bearing pHS5 transconjugant from Enterobacter cloacae 641 by agar dilution method; type: functional
[4] = system: Escherichia coli; test: Antimicrobial activity against azide-resistant aac(6')-Ib-cr expressing Escherichia coli J53 qnrA1 bearing pHS6 transconjugant from Escherichia coli 650 by agar dilution method; type: functional
[5] = system: Escherichia coli; test: Antimicrobial activity against azide-resistant aac(6')-Ib-cr deficient Escherichia coli J53 qnrA1 bearing pHS4 transconjugant from Enterobacter cloacae 91 by agar dilution method; type: functional
[6] = system: Citrobacter freundii; test: Antimicrobial activity Citrobacter freundii 64 expressing plasmid-mediated quinolone resistance qnr A gene by agar dilution method; type: functional
[7] = system: Escherichia coli; test: Antimicrobial activity Escherichia coli 633 expressing plasmid-mediated quinolone resistance qnr A gene by agar dilution method; type: functional
[8] = system: Enterobacter cloacae; test: Antimicrobial activity Enterobacter cloacae 641 expressing plasmid-mediated quinolone resistance qnr A gene by agar dilution method; type: functional
[9] = system: Enterobacter cloacae; test: Antimicrobial activity Enterobacter cloacae 113 expressing plasmid-mediated quinolone resistance qnr A gene by agar dilution method; type: functional
[10] = system: Escherichia coli; test: microbe, parasite or virus in culture; conditions: 650
Description: (§1) Antimicrobial activity Escherichia coli 650 expressing plasmid-mediated quinolone resistance qnr A gene by agar dilution method

[11] = system: Enterobacter cloacae; test: Antimicrobial activity Enterobacter cloacae 91 expressing plasmid-mediated quinolone resistance qnr A gene by agar dilution method; type: functional
[12] = system: Enterobacter cloacae; test: Antimicrobial activity Enterobacter cloacae 63 expressing plasmid-mediated quinolone resistance qnr A gene by agar dilution method; type: functional
[13] = system: Escherichia coli; test: Antibacterial activity against pKK232-8-HS5-transformed Escherichia coli HB101 transformants harboring promoter sequence of qnrA1 gene cloned with promoterless cat gene by agar dilution method; type: functional
[14] = system: Escherichia coli; test: Ratio of MIC for pKK232-8-HS6-transformed Escherichia coli HB101 transformants to MIC for pKK232-8-HS5-transformed Escherichia coli HB101 transformants; type: functional
[15] = system: Escherichia coli; test: Ratio of MIC for pKK232-8-HS6-transformed Escherichia coli HB101 transformants to MIC for pKK232-8-HS3-transformed Escherichia coli HB101 transformants; type: functional
[16] = system: Escherichia coli; test: Antibacterial activity against pKK232-8-HS4-transformed Escherichia coli HB101 transformants harboring promoter sequence of qnrA1 gene cloned with promoterless cat gene by agar dilution method; type: functional
[17] = system: Escherichia coli; test: Antibacterial activity against Escherichia coli HB101 by agar dilution method; type: functional
[18] = system: Escherichia coli; test: Ratio of MIC for pKK232-8-HS6-transformed Escherichia coli HB101 transformants to MIC for pKK232-8-HS4-transformed Escherichia coli HB101 transformants; type: functional
[19] = system: Escherichia coli; test: Antibacterial activity against pKK232-8-HS6-transformed Escherichia coli HB101 transformants harboring promoter sequence of qnrA1 gene cloned with promoterless cat gene by agar dilution method; type: functional
[20] = system: Escherichia coli; test: Antibacterial activity against pKK232-8-HS3-transformed Escherichia coli HB101 transformants harboring promoter sequence of qnrA1 gene cloned with promoterless cat gene by agar dilution method; type: functional
[21] = system: Escherichia coli; test: Antibacterial activity against pKK232-8-tranformed Escherichia coli HB101 transformants harboring promoterless cat gene by agar dilution method; type: functional
[22] = system: Escherichia coli; test: Antibacterial activity against Escherichia coli isolate 1B harboring qnrA1 and blaVEB1 genes by agar dilution method
[23] = system: Escherichia coli; conditions: 650
Description: as §1

For NCC[C@H](O)C(=O)N[C@@H]1C[C@H](N)[C@@H](O[C@H]2O[C@H](CN)[C@@H](O)[C@H](O)[C@H]2O)[C@H](O)[C@H]1O[C@H]1O[C@H](CO)[C@@H](O)[C@H](N)[C@H]1O [AMIKACIN], the MIC [1] was 0.5 µg/mL (≈ 0.854 µM), the MIC [2] was 2 µg/mL (≈ 3.42 µM) and the MIC [3] was 4 µg/mL (≈ 6.83 µM). It also gave an MIC [4] of 2 µg/mL (≈ 3.42 µM) and an MIC [5] of 4 µg/mL (≈ 6.83 µM).
Compound CC1(C)S[C@@H]2[C@H](NC(=O)[C@H](N)c3ccccc3)C(=O)N2[C@H]1C(=O)O [AMPICILLIN] has an MIC [1] of 8 µg/mL (≈ 22.9 µM), an MIC [2] of 512 µg/mL (≈ 1470 µM) and an MIC [3] of no less than 512 µg/mL. The MIC [4] was 512 µg/mL (≈ 1470 µM) and the MIC [5] was no less than 512 µg/mL.
With CO/N=C(\C(=O)N[C@@H]1C(=O)N2C(C(=O)O)=C(COC(C)=O)CS[C@H]12)c1csc(N)n1 [CEFOTAXIME] the MIC [6] was 2 µg/mL (≈ 4.39 µM), the MIC [7] was no less than 128 µg/mL and the MIC [8] was 32 µg/mL (≈ 70.3 µM). It also gave an MIC [1] of no more than 0.06 µg/mL, an MIC [2] of no more than 0.06 µg/mL and an MIC [9] of 64 µg/mL (≈ 141 µM). The MIC [10] was 1 µg/mL (≈ 2.2 µM), the MIC [11] was 32 µg/mL (≈ 70.3 µM) and the MIC [12] was 64 µg/mL (≈ 141 µM). For the same compound, the MIC [3] was 8 µg/mL (≈ 17.6 µM), the MIC [4] was 0.125 µg/mL (≈ 0.274 µM) and the MIC [5] was 8 µg/mL (≈ 17.6 µM).
Compound CC(C)(O/N=C(\C(=O)N[C@@H]1C(=O)N2C(C(=O)[O-])=C(C[n+]3ccccc3)CS[C@H]12)c1csc(N)n1)C(=O)O [CEFTAZIDIME] has an MIC [6] of 4 µg/mL (≈ 7.32 µM), an MIC [7] of 4 µg/mL (≈ 7.32 µM) and an MIC [8] of 64 µg/mL (≈ 117 µM). For the same compound, the MIC [1] was 0.125 µg/mL (≈ 0.229 µM), the MIC [2] was 0.125 µg/mL (≈ 0.229 µM) and the MIC [9] was 128 µg/mL (≈ 234 µM). It also gave an MIC [10] of 4 µg/mL (≈ 7.32 µM), an MIC [11] of 128 µg/mL (≈ 234 µM) and an MIC [12] of 32 µg/mL (≈ 58.5 µM). It also gave an MIC [3] of 32 µg/mL (≈ 58.5 µM), an MIC [4] of 0.125 µg/mL (≈ 0.229 µM) and an MIC [5] of 8 µg/mL (≈ 14.6 µM).
Compound O=C(N[C@H](CO)[C@H](O)c1ccc([N+](=O)[O-])cc1)C(Cl)Cl [CHLORAMPHENICOL] has an MIC [13] of 8 µg/mL (≈ 24.8 µM), a Ratio [14] of 12 and a Ratio [15] of 12. It also gave an MIC [16] of 8 µg/mL (≈ 24.8 µM), an MIC [17] of 3 µg/mL (≈ 9.28 µM) and a Ratio [18] of 12. The MIC [19] was 96 µg/mL (≈ 297 µM), the MIC [20] was 8 µg/mL (≈ 24.8 µM) and the MIC [21] was 3 µg/mL (≈ 9.28 µM).
For O=C(O)c1cn(C2CC2)c2cc(N3CCNCC3)c(F)cc2c1=O [CIPROFLOXACIN], the MIC [22] was greater than 32 µg/mL.
NC[C@H]1O[C@H](O[C@H]2[C@H](O)[C@@H](O[C@H]3O[C@H](CO)[C@@H](O)[C@H](N)[C@H]3O)[C@H](N)C[C@@H]2N)[C@H](O)[C@@H](O)[C@@H]1O [KANAMYCIN] was tested, and the MIC [1] was 0.5 µg/mL (≈ 1.03 µM), the MIC [2] was 8 µg/mL (≈ 16.5 µM) and the MIC [3] was 64 µg/mL (≈ 132 µM). The MIC [4] was 16 µg/mL (≈ 33 µM) and the MIC [5] was 64 µg/mL (≈ 132 µM).
Compound C[C@H]1COc2c(N3CCN(C)CC3)c(F)cc3c(=O)c(C(=O)O)cn1c23.C[C@H]1COc2c(N3CCN(C)CC3)c(F)cc3c(=O)c(C(=O)O)cn1c23.O [LEVOFLOXACIN] has an MIC [2] of 0.19 µg/mL, an MIC [3] of 0.19 µg/mL and an MIC [4] of 0.38 µg/mL. For the same compound, the MIC [5] was 0.19 µg/mL.
In the case of CN[C@@H]1[C@H](O[C@H]2[C@H](O[C@H]3[C@H](O)[C@@H](O)[C@H](N=C(N)N)[C@@H](O)[C@@H]3N=C(N)N)O[C@@H](C)[C@]2(O)C=O)O[C@@H](CO)[C@H](O)[C@H]1O [STREPTOMYCIN], the MIC [1] is reported as 1 µg/mL (≈ 1.72 µM), the MIC [2] is reported as 2 µg/mL (≈ 3.44 µM) and the MIC [3] is reported as 8 µg/mL (≈ 13.8 µM). The MIC [4] was 1 µg/mL (≈ 1.72 µM) and the MIC [5] was 8 µg/mL (≈ 13.8 µM).
With Cc1cc(NS(=O)(=O)c2ccc(N)cc2)no1 [SULFAMETHOXAZOLE] the MIC [6] was no less than 512 µg/mL, the MIC [7] was no less than 512 µg/mL and the MIC [8] was no less than 512 µg/mL. For the same compound, the MIC [1] was 8 µg/mL (≈ 31.6 µM), the MIC [2] was no less than 512 µg/mL and the MIC [9] was no less than 512 µg/mL. The MIC [10] was no less than 512 µg/mL, the MIC [11] was no less than 512 µg/mL and the MIC [12] was no less than 512 µg/mL. For the same compound, the MIC [3] was no less than 512 µg/mL, the MIC [4] was no less than 512 µg/mL and the MIC [5] was no less than 512 µg/mL.
NC[C@H]1O[C@H](O[C@H]2[C@H](O)[C@@H](O[C@H]3O[C@H](CO)[C@@H](O)[C@H](N)[C@H]3O)[C@H](N)C[C@@H]2N)[C@H](N)C[C@@H]1O [TOBRAMYCIN] was tested, and the MIC [1] was 0.25 µg/mL (≈ 0.535 µM), the MIC [2] was 8 µg/mL (≈ 17.1 µM) and the MIC [3] was 8 µg/mL (≈ 17.1 µM). It also gave an MIC [4] of 8 µg/mL (≈ 17.1 µM) and an MIC [5] of 8 µg/mL (≈ 17.1 µM).
In the case of COc1cc(Cc2cnc(N)nc2N)cc(OC)c1OC [TRIMETHOPRIM], the MIC [1] is reported as no more than 0.06 µg/mL, the MIC [2] is reported as no more than 0.06 µg/mL and the MIC [3] is reported as no less than 512 µg/mL. It also gave an MIC [4] of 0.25 µg/mL (≈ 0.861 µM) and an MIC [5] of no less than 512 µg/mL.
GENTAMICIN was tested, and the MIC [23] was greater than 128 µg/mL, the MIC [6] was 32 µg/mL and the MIC [7] was greater than 128 µg/mL. It also gave an MIC [8] of 4 µg/mL, an MIC [1] of 0.25 µg/mL and an MIC [2] of 8 µg/mL. The MIC [9] was 8 µg/mL, the MIC [11] was 8 µg/mL and the MIC [12] was 4 µg/mL. It also gave an MIC [3] of 2 µg/mL, an MIC [4] of 0.25 µg/mL and an MIC [5] of 2 µg/mL.
